Literature values, collected in patent US20230099183A1, “STEVIOL GLYCOSIDE AND GLYCERIN FORMULATIONS FOR FOOD AND BEVERAGES” (Sweegen, Inc., priority 2021, published 2023).

How the values were obtained:
[1] = background statement on natural steviol glycosides
[2] = background statement; concentration in food or beverage

| Molecule | degree of sweetness, times sweeter than sucrose [1] | concentration above which bitterness is perceptible [2] |
| --- | --- | --- |
| C=C1C[C@@]23CC[C@H]4[C@@](C)(CCC[C@@]4(C)C(=O)O[C@@H]4O[C@H](CO)[C@@H](O)[C@H](O)[C@H]4O)[C@@H]2CC[C@]1(O[C@@H]1O[C@H](CO)[C@@H](O)[C@H](O)[C@H]1O[C@@H]1O[C@@H](C)[C@H](O)[C@@H](O)[C@H]1O)C3 [Dulcoside A] | about 30 times sweeter than sucrose | – |
| C=C1C[C@@]23CC[C@H]4[C@@](C)(CCC[C@@]4(C)C(=O)O[C@@H]4O[C@H](CO)[C@@H](O)[C@H](O)[C@H]4O)[C@@H]2CC[C@]1(O[C@@H]1O[C@H](CO)[C@@H](O)[C@H](O[C@@H]2O[C@H](CO)[C@@H](O)[C@H](O)[C@H]2O)[C@H]1O[C@@H]1O[C@H](CO)[C@@H](O)[C@H](O)[C@H]1O)C3 [Reb A] | – | above 200 ppm |
| C=C1C[C@@]23CC[C@H]4[C@@](C)(CCC[C@@]4(C)C(=O)O[C@@H]4O[C@H](CO)[C@@H](O)[C@H](O)[C@H]4O)[C@@H]2CC[C@]1(O[C@@H]1O[C@H](CO)[C@@H](O)[C@H](O)[C@H]1O[C@@H]1O[C@H](CO)[C@@H](O)[C@H](O)[C@H]1O)C3 [stevioside] | 100-150 times sweeter than sucrose | – |
| Rebaudioside C | 40-60 times sweeter than sucrose | – |
